Assay results as given in patent publication US11147763B2, “Vaginal ring with visual indication of use” (RESEARCH TRIANGLE INSTITUTE, priority 2015, dated 2021).

Tests used:
[1] = Screen of pH-based color changing tracers in biocompatible-grade silicone material; assay type: physicochemical; conditions: biocompatible-grade silicone placed into an aqueous environment
Method: For the second approach, research efforts focused on developing systems for analyzing biological constituents that diffuse into the ring causing a pH change (FIG. 2B, ii). To accomplish this testing strategy, a variety of pH-based color changing formulations were evaluated in biocompatible-grade silicone material. […] This material screen also facilitated the abandonment of tracers with poor performance, such as highly hydrophilic molecular families with high expulsion tendencies.

[2] = Diffusion of indicator out of silicone (PDMS) vaginal ring into surrounding solution; assay type: physicochemical; conditions: aqueous conditions, over the course of one week (FIG. 3B)
Method: Two different approaches were tested to assess the usage of the vaginal ring (FIG. 2A and FIG. 2B). First, a system with signal change resultant of indicator diffusion (i) out of the ring was tested (FIG. 2A).
In these cases, silicone (polydimethyl siloxane, PDMS) was utilized in combination with rhodamine-B, fluorescein, and a rhodamine-B/Brilliant Blue combination. (FIG. 3A).

Structure (SMILES) | leaching of tracer from the silicone material [1] | release of indicator from the silicone material [2]
O=C1c2ccccc2C(=O)c2c1ccc(O)c2O [Alazarin] | readily leached from the silicone material | –
CN(C)c1ccc(/N=N/c2ccccc2C(=O)O)cc1 [Methyl Red] | readily leached from the silicone material | –
CCN(CC)c1ccc2c(-c3ccccc3C(=O)O)c3ccc(=[N+](CC)CC)cc-3oc2c1.[Cl-] [rhodamine-B] | – | readily released from the silicone material
